Data reported in patent publication US11851446B2, “Probes for imaging Huntingtin protein” (CHDI Foundation, Inc., priority 2014, dated 2023).

What follows are compounds tested against T1, Q46 protein aggregates (Homo sapiens, UniProt P42858, INS38QQQQQQQQQQQQQQQQQQQQQQQQQ) (assay: Q46 Radioligand Binding Assay (RBA)). Details: displacement of 10 nM [3H3]MK-3328 from 5 μM aggregated Q46 protein, 60 minutes at 37° C.
T1 construct: fused on or other part: GST at the N-terminus, cut off by thrombin before the test to start aggregation
Description: Q46 Radioligand Binding Assay
For radioligand binding assays (RBA) GST-Q46 protein was generated based on a previous publication (Scherzinger et al. Cell, Vol. 90, 549-558, Aug. 8, 1997). For experiments 33 μM GST-Q46 was incubated with 150 μg/mL thrombin in assay buffer (150 mM NaCl, 50 mM Tris pH 8.0) and 2 mM CaCl2 for 16 hours at 37° C. Aggregated Q46 was pelleted by centrifugation for 5 minutes at 13,000 rpm in a bench top centrifuge and re-dissolved in the same volume of assay buffer. Test compounds were prepared by titration in DMSO at 11 concentrations from 33 μM to 1 nM. For the RBA, Q46 protein aggregates and test compounds were pre-incubated in assay buffer for 20 minutes at room temperature, in 140 μL/well in a 96-well plate (pp, round bottom). Then, ligand was added in 10 μL/well and incubated for 60 minutes at 37° C. Final assay concentrations were […] test compound, 5 μM Q46 protein (equivalent monomer concentration) and 10 nM ligand [^3H3]MK-3328 (Harrision et al., ACS Med. Chem. Lett., 2 (2011), pp 498-502). Samples were transferred onto GF/B filter plates and washed 2× with 200 μL PBS using a Filtermate Harvester. After drying filter plates for 1 hour at 37° C., the back of the plates was sealed with foil and 30 μl/well scintillation fluid (Packard MicroScint 40) was added, incubated for […] 15 minutes in the dark and counted in a TopCount reader. For analysis, replicate data from independent assay plates were normalized towards 0% and 100% inhibition using control wells of vehicle (0% inhibition) and 3 μM unlabelled MK-3328 (100% inhibition). IC50 values were determined with a sigmoidal inhibition model with four variables (top, bottom, slope, IC50) in a global fit using the normalized replicate data.

T1 sequence (P42858 with tags, fused parts or gaps with the stated changes): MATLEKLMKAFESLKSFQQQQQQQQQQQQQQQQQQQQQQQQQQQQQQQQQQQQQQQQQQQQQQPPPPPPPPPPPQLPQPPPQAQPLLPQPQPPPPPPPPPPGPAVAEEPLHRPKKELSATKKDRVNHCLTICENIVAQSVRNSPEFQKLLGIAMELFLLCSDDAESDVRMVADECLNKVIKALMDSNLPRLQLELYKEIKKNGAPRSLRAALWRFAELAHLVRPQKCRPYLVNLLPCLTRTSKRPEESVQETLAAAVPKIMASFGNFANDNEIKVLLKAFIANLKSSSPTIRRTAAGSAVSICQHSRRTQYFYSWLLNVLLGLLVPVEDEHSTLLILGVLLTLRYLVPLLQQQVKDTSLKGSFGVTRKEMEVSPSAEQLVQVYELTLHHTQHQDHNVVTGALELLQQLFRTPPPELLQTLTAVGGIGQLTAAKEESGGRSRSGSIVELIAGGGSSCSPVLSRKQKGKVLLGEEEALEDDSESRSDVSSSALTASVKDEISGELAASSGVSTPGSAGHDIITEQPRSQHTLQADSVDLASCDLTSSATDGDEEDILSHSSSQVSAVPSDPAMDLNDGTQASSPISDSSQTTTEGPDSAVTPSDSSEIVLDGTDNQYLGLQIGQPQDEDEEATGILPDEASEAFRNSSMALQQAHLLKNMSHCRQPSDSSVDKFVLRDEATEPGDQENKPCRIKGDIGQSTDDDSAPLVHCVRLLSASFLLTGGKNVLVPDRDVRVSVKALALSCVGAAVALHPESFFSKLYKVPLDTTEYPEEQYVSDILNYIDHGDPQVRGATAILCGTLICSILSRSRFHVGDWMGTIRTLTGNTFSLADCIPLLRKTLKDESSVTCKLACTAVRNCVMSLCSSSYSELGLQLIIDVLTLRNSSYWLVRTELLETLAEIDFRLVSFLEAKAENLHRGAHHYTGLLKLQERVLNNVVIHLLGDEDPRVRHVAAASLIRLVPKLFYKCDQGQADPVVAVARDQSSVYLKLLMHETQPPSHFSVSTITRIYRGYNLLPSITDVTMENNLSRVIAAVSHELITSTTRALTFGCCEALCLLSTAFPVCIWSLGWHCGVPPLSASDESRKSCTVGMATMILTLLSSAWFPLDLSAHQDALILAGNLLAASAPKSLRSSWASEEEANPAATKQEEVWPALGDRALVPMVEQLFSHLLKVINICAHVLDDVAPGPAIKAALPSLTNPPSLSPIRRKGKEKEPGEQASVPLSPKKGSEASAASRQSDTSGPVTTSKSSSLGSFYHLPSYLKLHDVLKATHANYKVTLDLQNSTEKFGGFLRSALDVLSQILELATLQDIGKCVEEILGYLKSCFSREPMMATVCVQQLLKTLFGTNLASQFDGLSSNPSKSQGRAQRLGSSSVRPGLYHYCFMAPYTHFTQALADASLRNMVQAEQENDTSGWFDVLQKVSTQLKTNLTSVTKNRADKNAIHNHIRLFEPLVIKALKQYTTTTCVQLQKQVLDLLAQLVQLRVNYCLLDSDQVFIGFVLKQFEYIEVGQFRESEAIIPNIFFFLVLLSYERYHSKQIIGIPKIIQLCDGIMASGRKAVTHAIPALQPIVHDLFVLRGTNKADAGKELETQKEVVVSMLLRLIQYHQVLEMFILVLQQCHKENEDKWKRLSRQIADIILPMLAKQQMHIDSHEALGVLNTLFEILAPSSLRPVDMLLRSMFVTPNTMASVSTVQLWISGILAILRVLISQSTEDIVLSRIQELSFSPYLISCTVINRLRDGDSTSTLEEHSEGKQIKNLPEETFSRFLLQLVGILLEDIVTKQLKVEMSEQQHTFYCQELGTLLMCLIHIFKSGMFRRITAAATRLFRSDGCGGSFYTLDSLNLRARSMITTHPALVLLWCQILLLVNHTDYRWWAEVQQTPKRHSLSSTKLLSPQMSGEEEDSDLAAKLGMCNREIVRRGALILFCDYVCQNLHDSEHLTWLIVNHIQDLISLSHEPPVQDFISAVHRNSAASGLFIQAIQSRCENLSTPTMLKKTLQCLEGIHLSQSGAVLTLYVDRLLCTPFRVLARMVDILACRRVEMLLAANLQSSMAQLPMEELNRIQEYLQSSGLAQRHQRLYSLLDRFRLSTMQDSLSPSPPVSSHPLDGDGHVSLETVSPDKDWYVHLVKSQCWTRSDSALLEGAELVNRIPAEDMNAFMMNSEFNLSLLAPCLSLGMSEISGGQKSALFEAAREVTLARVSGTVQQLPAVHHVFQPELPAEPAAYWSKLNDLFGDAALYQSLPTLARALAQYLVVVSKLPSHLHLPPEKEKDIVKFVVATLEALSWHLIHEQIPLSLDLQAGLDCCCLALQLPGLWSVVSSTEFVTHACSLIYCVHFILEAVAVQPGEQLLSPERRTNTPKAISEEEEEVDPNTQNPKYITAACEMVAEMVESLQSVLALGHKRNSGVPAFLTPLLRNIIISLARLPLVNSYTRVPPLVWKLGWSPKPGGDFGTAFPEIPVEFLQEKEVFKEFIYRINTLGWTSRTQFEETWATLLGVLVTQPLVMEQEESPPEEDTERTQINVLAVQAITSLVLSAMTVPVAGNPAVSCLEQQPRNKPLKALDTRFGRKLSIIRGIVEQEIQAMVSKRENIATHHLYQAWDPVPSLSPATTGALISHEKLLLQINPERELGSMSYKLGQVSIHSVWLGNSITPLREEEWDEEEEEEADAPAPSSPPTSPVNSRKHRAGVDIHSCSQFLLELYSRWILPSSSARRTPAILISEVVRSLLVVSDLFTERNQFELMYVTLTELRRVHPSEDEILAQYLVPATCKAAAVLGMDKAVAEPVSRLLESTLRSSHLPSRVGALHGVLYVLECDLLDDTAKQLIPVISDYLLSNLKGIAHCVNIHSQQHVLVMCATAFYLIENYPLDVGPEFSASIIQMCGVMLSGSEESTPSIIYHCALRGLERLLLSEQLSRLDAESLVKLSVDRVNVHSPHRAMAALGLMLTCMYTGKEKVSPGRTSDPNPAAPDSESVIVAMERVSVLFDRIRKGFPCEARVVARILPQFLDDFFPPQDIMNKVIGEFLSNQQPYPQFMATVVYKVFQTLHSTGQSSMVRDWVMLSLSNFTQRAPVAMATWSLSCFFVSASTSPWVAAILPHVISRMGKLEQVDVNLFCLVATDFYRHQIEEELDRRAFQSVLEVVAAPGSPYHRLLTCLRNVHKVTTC

IC50	SMILES
100 to 500 nM	CNc1c(-c2ccc3occc3c2)nc2cc(C#N)ccn12 [2-(1-benzofuran-5-yl)-3-(methylamino)imidazo[1,2-a]pyridine-7-carbonitrile]
100 to 500 nM	CNc1c(-c2ccc3c(c2)OCCO3)nc2cc(C#N)ccn12 [2-(2,3-dihydro-1,4-benzodioxin-6-yl)-3-(methylamino)imidazo[1,2-a]pyridine-7-carbonitrile]
< 100 nM	CNc1c(-c2ccc(C#N)cc2)nc2cc(C#N)ccn12 [2-(4-cyanophenyl)-3-(methylamino)imidazo[1,2-a]pyridine-7-carbonitrile]
< 100 nM	CNc1c(-c2ccc(OC)cc2)nc2cc(C#N)ccn12 [2-(4-methoxyphenyl)-3-(methylamino)imidazo[1,2-a]pyridine-7-carbonitrile]
< 100 nM	CNc1c(-c2ccc(OCC3=CSC4=NCCN34)cc2)nc2cc(C#N)ccn12 [2-(4-{5H,6H-imidazo[2,1-b][1,3]thiazol-3-ylmethoxy}phenyl)-3-(methylamino)imidazo[1,2-a]pyridine-7-carbonitrile]
< 100 nM	CNc1c(-c2ccc(NCc3ccc(OC)cn3)cc2)nc2cc(C#N)ccn12 [2-(4-{[(5-methoxypyridin-2-yl)methyl]amino}phenyl)-3-(methylamino)imidazo[1,2-a]pyridine-7-carbonitrile]
< 100 nM	CNc1c(-c2cc3cc(Br)ccc3o2)nc2cc(C#N)ccn12 [2-(5-bromo-1-benzofuran-2-yl)-3-(methylamino)imidazo[1,2-a]pyridine-7-carbonitrile]
100 to 500 nM	CNc1c(-c2ccc(Br)o2)nc2cc(C#N)ccn12 [2-(5-bromofuran-2-yl)-3-(methylamino)imidazo[1,2-a]pyridine-7-carbonitrile]
< 100 nM	CNc1c(-c2cc3cc(F)ccc3o2)nc2cc(C#N)ccn12 [2-(5-fluoro-1-benzofuran-2-yl)-3-(methylamino)imidazo[1,2-a]pyridine-7-carbonitrile]
> 500 nM	CNc1c(-c2cc3cc(F)ccc3o2)nc2ccccn12 [2-(5-fluoro-1-benzofuran-2-yl)-N-methylimidazo[1,2-a]pyridin-3-amine]
< 100 nM	CNc1c(-c2cc3cc(O)ccc3o2)nc2cc(C#N)ccn12 [2-(5-hydroxy-1-benzofuran-2-yl)-3-(methylamino)imidazo[1,2-a]pyridine-7-carbonitrile]
< 100 nM	CNc1c(-c2nc3cc(OC)ccc3o2)nc2cc(C#N)ccn12 [2-(5-methoxy-1,3-benzoxazol-2-yl)-3-(methylamino)imidazo[1,2-a]pyridine-7-carbonitrile]
< 100 nM	COCc1c(-c2cc3cc(OC)ccc3o2)nc2cc(C#N)ccn12 [2-(5-methoxy-1-benzofuran-2-yl)-3-(methoxymethyl)imidazo[1,2-a]pyridine-7-carbonitrile]
< 100 nM	CNc1c(-c2cc3cc(OC)ccc3o2)nc2ccc(C#N)cn12 [2-(5-methoxy-1-benzofuran-2-yl)-3-(methylamino)imidazo[1,2-a]pyridine-6-carbonitrile]
< 100 nM	CNc1c(-c2cc3cc(OC)ccc3o2)nc2cc(C#N)ccn12 [2-(5-methoxy-1-benzofuran-2-yl)-3-(methylamino)imidazo[1,2-a]pyridine-7-carbonitrile]
< 100 nM	COCCNc1c(-c2cc3cc(OC)ccc3o2)nc2cc(C#N)ccn12 [2-(5-methoxy-1-benzofuran-2-yl)-3-[(2-methoxyethyl)amino]imidazo[1,2-a]pyridine-7-carbonitrile]
100 to 500 nM	COCCNc1c(-c2cc3cc(OC)ccc3o2)nc2ccccn12 [2-(5-methoxy-1-benzofuran-2-yl)-N-(2-methoxyethyl)imidazo[1,2-a]pyridin-3-amine]
< 100 nM	CNc1c(-c2cc3cc(OC)ccc3o2)nc2cc(C#C[Si](C)(C)C)ccn12 [2-(5-methoxy-1-benzofuran-2-yl)-N-methyl-7-[2-(trimethylsilyl)ethynyl]imidazo[1,2-a]pyridin-3-amine]
100 to 500 nM	CNc1c(-c2cc3cc(OC)ccc3o2)nc2ccccn12 [2-(5-methoxy-1-benzofuran-2-yl)-N-methylimidazo[1,2-a]pyridin-3-amine]
< 100 nM	COc1ccc2oc(-c3cn4ccc(C#N)cc4n3)cc2c1 [2-(5-methoxy-1-benzofuran-2-yl)imidazo[1,2-a]pyridine-7-carbonitrile]

IC50	SMILES
< 100 nM	CNc1c(-c2nc3cc(OC)ccc3n2C)nc2cc(C#N)ccn12 [2-(5-methoxy-1-methyl-1H-1,3-benzodiazol-2-yl)-3-(methylamino)imidazo[1,2-a]pyridine-7-carbonitrile]
< 100 nM	CNc1c(-c2nc3cc(OC)ccc3[nH]2)nc2cc(C#N)ccn12 [2-(5-methoxy-1H-1,3-benzodiazol-2-yl)-3-(methylamino)imidazo[1,2-a]pyridine-7-carbonitrile]
< 100 nM	CNc1c(-c2nc3ccc(OC)cc3s2)nc2cc(C#N)ccn12 [2-(6-methoxy-1,3-benzothiazol-2-yl)-3-(methylamino)imidazo[1,2-a]pyridine-7-carbonitrile]
< 100 nM	CNc1c(-c2cc3ccc(OC)cc3o2)nc2cc(C#N)ccn12 [2-(6-methoxy-1-benzofuran-2-yl)-3-(methylamino)imidazo[1,2-a]pyridine-7-carbonitrile]
< 100 nM	CNc1c(-c2nc3ccc(OC)cc3n2C)nc2cc(C#N)ccn12 [2-(6-methoxy-1-methyl-1H-1,3-benzodiazol-2-yl)-3-(methylamino)imidazo[1,2-a]pyridine-7-carbonitrile]
100 to 500 nM	CNc1c(-c2cc3cc(O)ccc3o2)nc2ccc(F)cn12 [2-[6-fluoro-3-(methylamino)imidazo[1,2-a]pyridin-2-yl]-1-benzofuran-5-ol]
< 100 nM	CNc1c(-c2cc3cc(O)ccc3o2)nc2cc(F)ccn12 [2-[7-fluoro-3-(methylamino)imidazo[1,2-a]pyridin-2-yl]-1-benzofuran-5-ol]
< 100 nM	CNc1c(/C=C/c2ccc(OC)cc2)nc2cc(C#N)ccn12 [2-[(E)-2-(4-methoxyphenyl)ethenyl]-3-(methylamino)imidazo[1,2-a]pyridine-7-carbonitrile]
100 to 500 nM	OCCNc1c(-c2cc3cc(O)ccc3o2)nc2ccccn12 [2-{3-[(2-hydroxyethyl)amino]imidazo[1,2-a]pyridin-2-yl}-1-benzofuran-5-ol]
< 100 nM	CNc1c(-c2cccc(OCc3cnc(OC)cn3)c2)nc2cc(C#N)ccn12 [2-{3-[(5-methoxypyrazin-2-yl)methoxy]phenyl}-3-(methylamino)imidazo[1,2-a]pyridine-7-carbonitrile]
< 100 nM	CNc1c(-c2ccc(OCc3cnc(OC)cn3)cc2)nc2cc(C#N)ccn12 [2-{4-[(5-methoxypyrazin-2-yl)methoxy]phenyl}-3-(methylamino)imidazo[1,2-a]pyridine-7-carbonitrile]
100 to 500 nM	CNc1c(-c2cc3cc(OCCN(C)C)ccc3o2)nc2cc(C#N)ccn12 [2-{5-[2-(dimethylamino)ethoxy]-1-benzofuran-2-yl}-3-(methylamino)imidazo[1,2-a]pyridine-7-carbonitrile]
< 100 nM	CNc1c(-c2ccc(OCc3cnc(OC)cn3)cn2)nc2cc(C#N)ccn12 [2-{5-[(5-methoxypyrazin-2-yl)methoxy]pyridin-2-yl}-3-(methylamino)imidazo[1,2-a]pyridine-7-carbonitrile]
< 100 nM	CNc1c(-c2cnc(OCc3ccc(OC)cn3)cn2)nc2cc(C#N)ccn12 [2-{5-[(5-methoxypyridin-2-yl)methoxy]pyrazin-2-yl}-3-(methylamino)imidazo[1,2-a]pyridine-7-carbonitrile]
< 100 nM	CNc1c(-c2ccc(OCc3cnc(OC)cn3)nc2)nc2cc(C#N)ccn12 [2-{6-[(5-methoxypyrazin-2-yl)methoxy]pyridin-3-yl}-3-(methylamino)imidazo[1,2-a]pyridine-7-carbonitrile]
< 100 nM	CNc1c(-c2cn3c(n2)sc2cc(OC)ccc23)nc2cc(C#N)ccn12 [2-{10-methoxy-7-thia-2,5-diazatricyclo[6.4.0.0^2,6]dodeca-1(12),3,5,8,10-pentaen-4-yl}-3-(methylamino)imidazo[1,2-a]pyridine-7-carbonitrile]
< 100 nM	CNc1c(-c2cn3c(n2)sc2ccc(OC)cc23)nc2cc(C#N)ccn12 [2-{11-methoxy-7-thia-2,5-diazatricyclo[6.4.0.0^2,6]dodeca-1(12),3,5,8,10-pentaen-4-yl}-3-(methylamino)imidazo[1,2-a]pyridine-7-carbonitrile]
100 to 500 nM	COc1ccc2oc(-c3nc4cc(C#N)ccn4c3N(C)C)cc2c1 [3-(dimethylamino)-2-(5-methoxy-1-benzofuran-2-yl)imidazo[1,2-a]pyridine-7-carbonitrile]
< 100 nM	CNc1c(-c2cccc(-c3cnccn3)c2)nc2cc(C#N)ccn12 [3-(methylamino)-2-[3-(pyrazin-2-yl)phenyl]imidazo[1,2-a]pyridine-7-carbonitrile]
